{"source": "patent US7927601B2", "about": "“Variants of hepatitis B virus with resistance to anti-viral nucleoside agents and applications thereof” (Melbourne Health, priority 2004, dated 2011)", "format_in_all_cases": "cell-based, HBV genotype A", "key": {"[1]": {"tested_on": "WT HBV-DNA construct transfected into HepG2 cells", "experiment": "transient transfection cell culture assay, extracellular HBV-DNA by real-time PCR, WT construct", "description": "(§1) An extended (1.28×) HBV genome was cloned (HBV genotype A, subtype adw2) into a pBluescript KS (+) plasmid (Stratagene, La Jolla, Calif., USA), as described by Tacke et al, J Virol 78:8524-8535, 2004.\nHepG2 cells were grown in Eagles minimum essential medium (LGC Promochem, Middlesex, UK), supplemented with 10% v/v fetal bovine serum at 37° C. and 5% v/v CO2. For cDNA transfections, 3×10^5 cells were seeded to semi-confluence onto each well of a 6-well plate and allowed to adhere overnight. […]\n(§2) HBV viral particles from the cell culture supernatant were precipitated using 26% polyethylene glycol (PEG 8000, Sigma, St. Louis, Mo., USA), followed by DNase 1 digestion (Takara, Shiga, Japan). […] A quantitative real-time PCR was used to quantify HBV-DNA. Briefly, a 189-bp fragment of the X region was amplified in a LightCycler system (Roche), using the QuantiTect Probe PCR kit (Qiagen) and the following probes and primers: 3FL-XHybprobe (5′-ACGGGGCGCACCTCTCTTTACGCGG fluorescein-3′ (SEQ ID NO:23)), 5LC-Xhybprobe (5′LCRed 640 nm-CTCCCCGTCTGTGCCTTCTCATCTGC PH-3′ (SEQ ID NO:24)), X sense (5′-GAC GTC CTT TGT YTA CGT CCC GTC-3′ (SEQ ID NO:25)), and X antisense (5′-TGCAGAGGTGAAGCGAAGTGCACA-3′ (SEQ ID NO:26)). […]\nExtracellular HBV-DNA was examined by real-time PCR, 5 days post-transfection and IC50 values were calculated."}, "[2]": {"tested_on": "A194T (AT) mutant HBV-DNA construct transfected into HepG2 cells", "experiment": "transient transfection cell culture assay, extracellular HBV-DNA by real-time PCR, rtA194T (AT) construct", "from_the_text": "as §1\n(§3) Three mutated HBV plasmids were constructed using a Quikchange (Registered) II site-directed mutagenesis kit (Stratagene, La Jolla, Calif., USA). Plasmids contained either mutations rtL180M and rtM204V (LM), rtL180M, rtM204V and rtA194T (LMAT), or rtA194T (AT). […]\nas §2\n(§4) After adjusting for transfection efficiency, IC50 values were calculated from the HBV viral load using the following formula (Vandamme et al, Antiviral methods and protocols: 231, 2000): log IC50=log conc. […]"}, "[3]": {"tested_on": "L180M + M204V (LM) mutant HBV-DNA construct transfected into HepG2 cells", "experiment": "transient transfection cell culture assay, extracellular HBV-DNA by real-time PCR, rtL180M+rtM204V (LM) construct", "from_the_text": "as §1, §3, §2, §4"}, "[4]": {"tested_on": "L180M, A194T, M204V (LMAT) mutant HBV-DNA construct transfected into HepG2 cells", "experiment": "transient transfection cell culture assay, extracellular HBV-DNA by real-time PCR, rtL180M+rtA194T+rtM204V (LMAT) construct", "from_the_text": "as §1, §3, §2, §4"}}, "note": "pIC50: −log10 of the molar value. Marks after values point to notes of the source that are not given here.", "data": [{"compound": "CC(C)OC(=O)OCOP(=O)(CO[C@H](C)Cn1cnc2c(N)ncnc21)OCOC(=O)OC(C)C.O=C(O)/C=C/C(=O)O", "note": "[tenofovir, Tenofovir disoproxil fumarate]", "values": [{"measurement": "Fold IC50, extracellular DNA", "setting": "[1]; WT HBV construct (reference)", "value": "1^"}, {"measurement": "pIC50", "setting": "[1]; WT HBV construct, 5 days post-transfection", "value": 4.91}, {"measurement": "pIC50", "setting": "[2]; A194T (AT) construct, HepG2 cells, 5 days post-transfection", "value": 4.02}, {"measurement": "Fold IC50, extracellular DNA", "setting": "[2]; A194T (AT) versus WT, 5-10 fold = partial resistance", "value": "7.6^a"}, {"measurement": "pIC50", "setting": "[3]; L180M + M204V (LM) construct, HepG2 cells, 5 days post-transfection", "value": 4.15}, {"measurement": "Fold IC50, extracellular DNA", "setting": "[3]; L180M + M204V (LM) versus WT, 5-10 fold = partial resistance", "value": "5.7^a"}, {"measurement": "pIC50", "setting": "[4]; M204V (LMAT) construct, HepG2 cells, value above the cell toxic level of tenofovir", "value": "< 3.92"}, {"measurement": "Fold IC50, extracellular DNA", "setting": "[4]; M204V (LMAT) versus WT, >10-fold = resistance", "value": ">10*^b"}]}]}
